Entries after “also recorded” stand apart in the source; their conditions may differ. Like-named read-outs stand apart in the source and are kept apart here.

The subject of data set [1] is uHeart 3D cardiac microtissues (h-iPSC-CMs and dermal fibroblasts in fibrin). Kind of data set: Drug screening on uHeart: field potential recording (FPDcF, BP, AMP, arrhythmic events, beating cessation). The following applies: for Arrhythmic events: detected (Y) or not (N) in uHeart; for Effect on beating period BP (in words) / Effect on FPDcF (in words) / Effect on spike amplitude AMP (in words): incremental doses; for Effect on FPDcF (in words): change vs baseline; for TdP risk category proposed from uHeart score: score vs ratio effective concentration/fETPC, Figure 6D; for Arrhythmic events, lowest detected concentration: value in brackets in Table 2; for Concentration at which the described FPDcF change was seen: aspirine: increment just above LOW threshold, alfuzosin: slight shortening; for [%FPDcF] >LOW, drug concentration: concentration causing FPDcF change by 10% vs baseline; for FPDcF alteration, direction, at [%FPDcF]>HIGH: threshold HIGH = 20% change vs baseline; for FPDcF alteration, direction, at [%FPDcF] >MID: threshold MID = 15% change vs baseline.
Description: Human adult dermal fibroblasts were provided by Lonza Group Ltd. H-iPSC-CMs were thawed according to standard protocols and immediately used. Fibroblasts were expanded at confluency in DMEM (Gibco, 4.5 g l^−1 glucose) supplemented with 10% v/v FBS, 100 U ml^−1 penicillin, 100 μg ml^−1 streptomycin, and 10 mmol HEPES and used at passage 10–11. […] Subsequently, 2 μl of cell solution was inoculated into the central channel of each chamber of the uBeat Platform (provided by BiomimX Srl). The hydrogel was cross-linked in the incubator at 37°C for 8 min before manually adding the plating medium (FUJIFILM Cellular Dynamics Inc.) supplemented with 100 U ml^−1 penicillin, 100 μg ml^−1 streptomycin, and 2 mg ml^−1 of 6-Aminocaproic acid (ACA). […] This medium was used and changed every day for the following 6 days.
Field potential (FP) measurements (Figure 1B) were performed after 6 or 7 days of culture, when the model expresses a strong spontaneous and synchronous beating. […] An AgCl ground electrode was inserted in one of the 4 cell culture medium reservoirs. Cell culture medium was changed at least 1 h prior to perform the measurements. To execute the tests, uHeart was maintained in the incubator at 37°C with 5% CO2 and the electrodes were connected to an extracellular amplifier (Ext-02b, Npi Electronic GmbH, Germany) with a 1 × 10^4 gain and a bandpass filter between 0.3 Hz and 10 kHz. FPs were acquired with an electronic board (Analog Discovery 2, Digilent, Washington) at a rate of 2000 samples s^−1.
The cell culture medium was exchanged with fresh serum-free RPMI medium and after 1 h the baseline FP signal was recorded for at least 3 min. Subsequently, the lowest drug dose was administered to the microtissues and incubated at 37°C for 10–20 min before recording the corresponding FP for at least 3 min. Between each incremental dose, a 5-min washing was performed with serum-free RPMI medium.
Results of BP, FPD, and AMP assessed by the algorithm were compared against manual measurement. BP and FPD were additionally analyzed by applying an initial bandwidth filter to the signal (3rd order Butterworth filter, 0.67–100 Hz, zero phase), to further verify the quality of the estimates obtained. After the validation, the algorithm was used to analyze the FP signal recorded during the pharmacological campaign. Signals not correctly recognized by the software, as verified by visual inspection on the user interface, were manually analyzed.
For compounds not evoking responses, the maximum tested concentration respect to the fETPC was used.
A quality control was established to select the signals to be considered for the evaluation of electrophysiological parameters changes in response to increasing concentrations of compounds. […] This inclusion criteria ensured that the developed cardiac microtissues spontaneously beat in a consistent way and allowed to normalize the obtained FP signals with correction methods based on the beating frequency.

On the set-up of data set [2]: method as in Mair et al., 2022. The following applies: long incubation, after 7 days; ref Mair et al., 2022; cited from earlier work.
The conditions of data set [3]: cited from earlier work; for fETPC: free effective therapeutic plasma concentration, ref Nguyen et al. (2017), Yamazaki et al. (2018).
The conditions of data set [4]: TdP risk category; ref Blinova et al., 2017; cited from earlier work.
Setting [5] is: clinical highest blood drug concentration, ref Blinova et al. (2017), Kopljar et al. (2018), Voelker and Hammer (2012).

Regarding `CC(C)(C)c1ccc(C(O)CCCN2CCC(C(O)(c3ccccc3)c3ccccc3)CC2)cc1` (stereo not shown) [Terfenadine], in data set [1], the “Arrhythmic events, percentage of uHearts affected” value (“Arrhythmic events, percentage” below) turned out to be 60%; the “Effect on beating period BP (in words)” value is “without affecting the BP”; the “Effect on FPDcF (in words)” value is recorded as “statistically prolonged the FPDcF at high dosages; also recorded: prolongation of the FPDcF”; the “TdP risk category proposed from uHeart score” value (shortened to “TdP risk category proposed”) is on record as “high risk”. The “Arrhythmic events, lowest detected concentration” value in data set [1] is listed as 0.001 µM. Also, in data set [1] (Kruskal-Wallis with Dunn's test), the “Concentration at which FPDcF was statistically prolonged” value was determined as 300 nM. For the same molecule, the “Concentration found effective in uHeart” value in data set [1] (as quoted in Discussion) was determined as 100000 nM. In addition, the Arrhythmic events result in data set [1] (also in words) is “arrhythmic events”. The “Reduction of compound by absorption in PDMS” value in data set [2] was “about 20%”. The Cmax in data set [3] (setting [5]) was 0.29 nM. In addition, the fETPC in data set [3] is 0.00029 µM. The “fETPC in the presence of metabolic inhibition” value in data set [3] (patients, cytochrome P450 inhibitor, ref Redfern et al., 2003) is listed as “about 4 nM”. In data set [3] (read-out: Cmax or fETPC, clinical value of patients, ref Ando et al., 2017), the Cmax was 0.29 nM.

As for `COc1cc2nc(N(C)CCCNC(=O)C3CCCO3)nc(N)c2cc1OC` (stereo not shown) [Alfuzosin], in data set [1], the “Concentration at which the described FPDcF change was seen” value stood at 300 nM; the “[%FPDcF] >LOW, drug concentration” value is on record as 0.3 µM; the “Effect on FPDcF (in words)” value is reported as “did not showed a peculiar trend”; the “TdP risk category proposed” value is reported as “low-risk”. In data set [1], the “FPDcF alteration, direction, at [%FPDcF]>HIGH” value was “↔ [drawing 30]” and the “FPDcF alteration, direction, at [%FPDcF] >MID” value is “↔ [drawing 29]”. In data set [1] (at high concentration (ie,100 µM)), this molecule yielded an FPDcF prolongation of roughly 10%. The Arrhythmic events entry in data set [1] (also in words) is given as “caused arrhythmic beating”. In data set [1] (listed as alfuzosin), the “Effect on FPDcF (in words)” value is “shortening”. In data set [3] (setting [5]), the Cmax is 15 nM. The fETPC in data set [3] is 0.01 µM.

Regarding `COc1cc(N)c(Cl)cc1C(=O)NC1CCN(CCCOc2ccc(F)cc2)CC1OC` (stereo not shown) [Cisapride], in data set [1], the “Arrhythmic events, percentage” value came to 50%; the “Stop, percentage of uHearts” value is reported as 25%; the “uHearts that ceased beating over uHearts tested” value is on record as 2 over 4; the “Effect on FPDcF (in words)” value is on record as “slightly decrease in the FPDcF; also recorded: shortened the repolarization time at all considered thresholds; also recorded: did not revealed a FPDcF prolongation”. In addition, in data set [1], the “TdP risk category proposed” value was “high risk”. Further, the “Stop (spontaneous beating cessation)” value in data set [1] (Y or N, also in words) is on record as “interrupted the spontaneous beating of microtissues”. The Arrhythmic events entry in data set [1] (also in words) is listed as “caused arrhythmic beats”. Further, the “Risk CiPa” value in data set [4] was “I”.

On to `CC(=O)Oc1ccccc1C(=O)O` [Aspirin], for which, in data set [1], the “Concentration at which the described FPDcF change was seen” value was found to be 300000 nM; the “Effect on FPDcF (in words)” value was “did not change the FPDcF”; the “TdP risk category proposed” value is reported as “low-risk”; the “FPDcF alteration, direction, at [%FPDcF]>HIGH” value is “↔ [drawing 33]”. Moreover, the “FPDcF alteration, direction, at [%FPDcF] >MID” value in data set [1] is “↔ [drawing 32]”. The “Effect on FPDcF (in words)” value in data set [1] (listed as aspirine) is recorded as “increment of the FPDcF just above the LOW threshold only at the highest concentration tested”. For the same molecule, the “FPDcF alteration, direction, at [%FPDcF] >LOW” value in data set [1] (threshold LOW = 10% change vs baseline) is “↔ [drawing 31]”. Besides, in data set [3] (setting [5]), the highest concentration (Cmax) was 24400 nM. In data set [3], the fETPC is 7.1 µM.

Take `CC(C)NCC(O)c1ccc(NS(C)(=O)=O)cc1` (stereo not shown) [Sotalol]: the Arrhythmic events result in data set [1] (also in words) is “did not elicit any arrhythmia; also recorded: not found to provoke arrhythmic events”. Further, in data set [1], the “Effect on beating period BP (in words)” value is on record as “slightly increased the BP; also recorded: drug dose dependent increase of the BP”, the “Effect on FPDcF (in words)” value is “prolonged the FPDcF above the defined thresholds; also recorded: dose-related FPDcF prolongation” and the “TdP risk category proposed” value is on record as “high risk”.

For `Cc1cccc(C)c1OCC(C)N` (stereo not shown) [Mexiletine], the “Concentration at which AMP statistically decreased” value in data set [1] (already at medium concentration) stood at 10000 nM. Also, in data set [1], the “[%FPDcF] >LOW, drug concentration” value was determined as 50 µM; the “Effect on beating period BP (in words)” value is listed as “did not show a trend in altering neither the FPDcF nor the BP; also recorded: without majorly affecting the FPDcF or the BP”; the “Effect on spike amplitude AMP (in words)” value is given as “statistically decreased in a concentration-dependent way; also recorded: dose-related statistically significant reduction of the FP amplitude”; the “TdP risk category proposed” value is “low-risk”. For the same molecule, in data set [1], the “FPDcF alteration, direction, at [%FPDcF]>HIGH” value was “↔ [drawing 21]” and the “FPDcF alteration, direction, at [%FPDcF] >MID” value is “↔ [drawing 20]”. In addition, the fETPC in data set [3] is 2.5 µM.

Consider `CN(CCOc1ccc(NS(C)(=O)=O)cc1)CCc1ccc(NS(C)(=O)=O)cc1` [Dofetilide], for which, in data set [1], the “Arrhythmic events, percentage” value came out at 66%; the “Stop, percentage of uHearts” value amounted to 33%; the “uHearts that ceased beating over uHearts tested” value came out at 1 over 3; the “Effect on beating period BP (in words)” value is “slightly increased the BP”. Further, in data set [1], the “Effect on spike amplitude AMP (in words)” value is “incremental decrease in the AMP”, the “Effect on FPDcF (in words)” value is “concentration-dependent prolongation of the FPDcF” and the “TdP risk category proposed” value was “high risk”. Further, the Arrhythmic events entry in data set [1] (also in words) is given as “Arrhythmic events were detected”. In data set [1] (listed as dofetilide), the “Effect on FPDcF (in words)” value was “prolonged the FPDcF above the defined thresholds; also recorded: dose-related FPDcF prolongation”.

`COc1ccccc1OCC(O)CN1CCN(CC(=O)Nc2c(C)cccc2C)CC1` (stereo not shown) [Ranolazine]: in data set [1], the “Arrhythmic events, percentage” value is 20%; the “Effect on beating period BP (in words)” value is reported as “increase the BP”; the “Effect on FPDcF (in words)” value is “statistically enhanced the repolarization time; also recorded: prolonged the FPDcF; also recorded: dose-related FPDcF prolongation”; the “TdP risk category proposed” value was “high-risk”. The Arrhythmic events entry in data set [1] (also in words) is given as “generated arrhythmia; also recorded: caused arrhythmic beating”. Besides, the “Effect on beating period BP (in words)” value in data set [1] (listed as ranolazine) was “rose the BP”.

As to `C=C[C@H]1C[N@@]2CC[C@H]1C[C@@H]2[C@@H](O)c1ccnc2ccc(OC)cc12` [Quinidine], in data set [1], the “Arrhythmic events, percentage” value was 50%; the “[%FPDcF] >LOW, drug concentration” value is on record as 0.06 µM; the “Effect on beating period BP (in words)” value is “slightly increased the BP”; the “Effect on FPDcF (in words)” value was “prolonged the FPDcF above the defined thresholds; also recorded: dose-related FPDcF prolongation”. Further, in data set [1], the “TdP risk category proposed” value was “high risk” and the “Arrhythmic events, lowest detected concentration” value is 0.1 µM. Further, in data set [1] (concentration causing FPDcF change by 15% vs baseline), the “[%FPDcF] >MID, drug concentration” value amounted to 1 µM. For the same molecule, in data set [1] (concentration causing FPDcF change by 20% vs baseline), the “[%FPDcF]>HIGH, drug concentration” value worked out at 10 µM. Besides, the Arrhythmic events entry in data set [1] (also in words) is recorded as “Arrhythmic events were detected”. Moreover, the Cmax in data set [3] (setting [5]) is 3000 nM. The fETPC in data set [3] is 3 µM.

The values are drawn from PMC9887672, “Predicting human cardiac QT alterations and pro-arrhythmic effects of compounds with a 3D beating heart-on-chip platform” (Toxicological Sciences, 2022).
